The text below walks through data of PubChem BioAssay (NCI).

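Following 48 hours of exposure in 96-well plates, responses at five concentrations were used to interpolate endpoints linearly. TGI: concentration producing complete growth inhibition.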 Where a SMILES comes first, the peptide text is derived from it. The star is where a group is joined. Boc = CC(C)(C)OC(=O)* Where only a bound is given, the exact number is not on record here.

Some test systems named below: SR leukemia; SNB-19 CNS; NCI-H460 lung; SF-295 CNS; HCT-116 colon; KM12 colon; PC-3 prostate; OVCAR-8 ovarian; SW-620 colon; SNB-75 CNS.
Assay in all cases: NCI-60 cell line screen, 48 h

`COc1cc2c(cc1OCCCC(=O)Nc1cc(C(=O)Nc3cc(C(=O)NCCCN(C)C)n(C)n3)n(C)n1)N=CC1CCCN1C2=O` (stereo unspecified): the TGI was 26.7 µM in the test with SR leukemia; 34.2 µM with SNB-19 CNS; more than 100 µM in the test on NCI-H460 lung; more than 100 µM in the test with SF-295 CNS; 34 µM in the test with HCT-116 colon; more than 100 µM with KM12 colon. Besides, the TGI in the test on PC-3 prostate worked out at 99.3 µM; in the test on OVCAR-8 ovarian it was 53.2 µM; with SW-620 colon it was 29.2 µM.

As for `CC(=O)C(=C(I)I)c1ccccc1`, the TGI is 35.5 µM in the test on SR leukemia; 37.2 µM in the test with SNB-19 CNS; more than 100 µM in the test with NCI-H460 lung; 50.1 µM with SF-295 CNS; 29.4 µM with HCT-116 colon; 41.4 µM in the test on KM12 colon. Also, the TGI was 83.8 µM in the test with PC-3 prostate, 39.6 µM in the test with OVCAR-8 ovarian and 38.7 µM in the test with SW-620 colon.

As to `CO[P@]1(=O)O[C@@H](c2ccccc2)[C@H](O)[C@]1(O)c1ccccc1`, the TGI with SNB-19 CNS, in the test with SNB-75 CNS, with NCI-H460 lung, with SF-295 CNS, with HCT-116 colon and with KM12 colon was more than 100 µM in each case. Besides, the TGI in the test on PC-3 prostate, with OVCAR-8 ovarian and in the test with SW-620 colon was more than 100 µM each time.

For the compound `NNC(=O)c1ccccc1NC(=O)/C(=C/c1ccccc1)NC(=O)c1ccccc1`, the TGI with SNB-19 CNS, in the test on SNB-75 CNS, in the test on NCI-H460 lung, in the test with SF-295 CNS, in the test with HCT-116 colon and with KM12 colon was more than 100 µM in each case. In addition, the TGI with PC-3 prostate, in the test on OVCAR-8 ovarian and in the test with SW-620 colon was more than 100 µM throughout.

For `Clc1ccc(OCc2nnc(CCCCCCCCc3nnc(COc4ccc(Cl)cc4Cl)o3)o2)c(Cl)c1`, the TGI in the test on SNB-19 CNS, in the test with SNB-75 CNS, in the test on NCI-H460 lung, with SF-295 CNS, in the test with HCT-116 colon and in the test with KM12 colon was more than 100 µM in each case. In addition, the TGI with PC-3 prostate and in the test on SW-620 colon was more than 100 µM throughout.

For the compound `CC(NC(=O)C(NC(=O)OC(C)(C)C)C(C)C)C(=O)NCC(=O)O` (stereo not drawn) (Boc-Val-Ala-Gly-OH; configuration not given here), the TGI in the test with SR leukemia, with SNB-19 CNS, in the test on NCI-H460 lung, in the test with SF-295 CNS, with HCT-116 colon and in the test on KM12 colon was more than 100 µM throughout. Further, the TGI in the test on PC-3 prostate, with OVCAR-8 ovarian and in the test with SW-620 colon was more than 100 µM in each case.

Take `c1ccc2c(c1)SC1Sc3ccccc3[S+]21` (stereo unspecified): the TGI in the test with SNB-19 CNS was more than 100 µM; in the test with SNB-75 CNS, more than 100 µM; with NCI-H460 lung, more than 70.7 µM; in the test with SF-295 CNS, more than 100 µM; with HCT-116 colon it was more than 57 µM; in the test on KM12 colon, 31.1 µM. Besides, the TGI with PC-3 prostate is more than 100 µM; in the test with OVCAR-8 ovarian, more than 78.3 µM; in the test with SW-620 colon it was more than 76.7 µM.

Regarding `Nc1cc(CO)cc(Nc2c3ccccc3nc3occc23)c1`, the TGI with SR leukemia was 27.3 µM; in the test with SNB-19 CNS it was more than 100 µM; in the test on NCI-H460 lung, 64.3 µM; in the test with SF-295 CNS, more than 100 µM; in the test on HCT-116 colon, 73.7 µM; with KM12 colon, more than 100 µM. Further, the TGI with PC-3 prostate and in the test on OVCAR-8 ovarian was more than 100 µM throughout.

`O=C(c1cccs1)N(C(=O)N1CCC(c2ccccc2)CC1)c1ccccc1`: the TGI with SNB-19 CNS is more than 100 µM; with NCI-H460 lung, more than 100 µM; with SF-295 CNS, more than 100 µM; in the test with HCT-116 colon, more than 100 µM; in the test on KM12 colon, 50.9 µM; with PC-3 prostate, more than 100 µM. Besides, the TGI with OVCAR-8 ovarian and in the test on SW-620 colon was more than 100 µM throughout.

For `CC(Nc1cc(Cl)cc(Cl)c1)c1ccncc1` (stereo unspecified), the TGI is more than 100 µM in the test with SNB-19 CNS; 63.1 µM with SNB-75 CNS; 73.3 µM in the test with NCI-H460 lung; 43.4 µM with SF-295 CNS; 31.6 µM in the test on HCT-116 colon; 36.7 µM in the test with PC-3 prostate. Moreover, the TGI worked out at 43 µM in the test on OVCAR-8 ovarian and 70.5 µM with SW-620 colon.

Consider `Brc1ccc2c(c1)C1=C(CO2)Cc2ccccc2O1`, for which the TGI in the test on SR leukemia was more than 100 µM; in the test on SNB-75 CNS, 43 µM; in the test with SF-295 CNS, 35.4 µM; in the test with HCT-116 colon, 29.9 µM; in the test on KM12 colon, 37.2 µM; with PC-3 prostate, 32.9 µM. The TGI was 47.6 µM in the test on OVCAR-8 ovarian and 66.4 µM in the test with SW-620 colon.

`COc1ccc(CNc2nc3ccccc3nc2-c2cccs2)cc1`: the TGI in the test with SR leukemia, in the test with SNB-75 CNS, with NCI-H460 lung, with SF-295 CNS, with HCT-116 colon and in the test with KM12 colon was more than 100 µM each time. Also, the TGI in the test with OVCAR-8 ovarian and in the test with SW-620 colon was more than 100 µM each time.

As to `CN(C)c1ccc(/C=N/NC2=N/C(=C\c3ccco3)C(=O)N2)cc1`, the TGI in the test on SNB-19 CNS, with SNB-75 CNS, in the test on NCI-H460 lung, in the test on SF-295 CNS, with HCT-116 colon and with KM12 colon was more than 100 µM throughout. The TGI in the test with PC-3 prostate, in the test with OVCAR-8 ovarian and in the test on SW-620 colon was more than 100 µM throughout.

As to `CC(NCCS(=O)(=O)O)C(=O)O` (stereo unspecified), the TGI in the test with SNB-19 CNS, in the test with SNB-75 CNS, with NCI-H460 lung, with SF-295 CNS, with HCT-116 colon and in the test with KM12 colon was more than 100 µM in each case. Moreover, the TGI with OVCAR-8 ovarian and in the test with SW-620 colon was more than 100 µM throughout.

On to `O=C(CCCC(=O)N1CC(CCl)c2ccc([N+](=O)[O-])cc21)N1CC(CCl)c2ccc([N+](=O)[O-])cc21` (stereo unspecified), for which the TGI in the test on SR leukemia was 60.5 µM; with SNB-19 CNS it was more than 100 µM; with NCI-H460 lung, more than 100 µM; in the test with SF-295 CNS, more than 100 µM; in the test on HCT-116 colon, more than 100 µM; in the test on PC-3 prostate, more than 100 µM. The TGI with SW-620 colon is more than 100 µM.
